By IC50 is commonly meant the concentration that inhibits the measured activity by half. Read a high IC50 as lower potency.

From ChEMBL document CHEMBL4196097, “Emerging Approaches for the Identification of Protein Targets of Small Molecules - A Practitioners' Perspective” (J Med Chem, 2018) come the findings set out here.

One assay concerns the target Translocator protein (Homo sapiens, UniProt P30536). The assay can be described thus: Inhibition of peripheral-type benzodiazepine receptor (unknown origin).
Another assay has as its target T1, Adenosine receptor A3 (Homo sapiens, UniProt P0DMS8).
T1 sequence (P0DMS8 whole entry): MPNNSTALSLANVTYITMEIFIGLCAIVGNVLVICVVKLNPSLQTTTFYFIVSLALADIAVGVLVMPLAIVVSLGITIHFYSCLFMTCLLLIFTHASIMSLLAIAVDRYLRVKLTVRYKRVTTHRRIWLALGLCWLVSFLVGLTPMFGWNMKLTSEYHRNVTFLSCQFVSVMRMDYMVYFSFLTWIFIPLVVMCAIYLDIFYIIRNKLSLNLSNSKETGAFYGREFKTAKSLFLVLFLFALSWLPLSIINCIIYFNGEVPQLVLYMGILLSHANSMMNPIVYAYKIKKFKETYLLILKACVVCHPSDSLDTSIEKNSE
The assay can be described thus: Inhibition of adenosine A3 receptor (unknown origin).

Sequence of Translocator protein (P30536 whole entry): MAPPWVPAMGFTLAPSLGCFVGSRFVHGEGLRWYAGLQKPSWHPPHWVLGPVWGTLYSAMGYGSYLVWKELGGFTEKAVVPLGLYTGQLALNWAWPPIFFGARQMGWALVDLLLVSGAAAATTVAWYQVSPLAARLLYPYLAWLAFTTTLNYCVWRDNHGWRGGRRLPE

Consider `COC(=O)C[C@@H]1N=C(c2ccc(Cl)cc2)c2c(sc(C)c2C)-n2c(C)nnc21`, for which the IC50 at Translocator protein is 400 nM; against Adenosine receptor A3, 1400 nM.
